Test results from ChEMBL document CHEMBL2157979, “Discovery of new non-steroidal FXR ligands via a virtual screening workflow based on Phase shape and induced fit docking” (Bioorg Med Chem Lett, 2012).
pEC50, pIC50: −log10 of the molar value.

Key:
Bile acid receptor [1] = biological target: T1, Bile acid receptor (Homo sapiens, UniProt Q96RI1); test: Agonist activity at FXR; type: functional
T1 sequence (Q96RI1 whole entry): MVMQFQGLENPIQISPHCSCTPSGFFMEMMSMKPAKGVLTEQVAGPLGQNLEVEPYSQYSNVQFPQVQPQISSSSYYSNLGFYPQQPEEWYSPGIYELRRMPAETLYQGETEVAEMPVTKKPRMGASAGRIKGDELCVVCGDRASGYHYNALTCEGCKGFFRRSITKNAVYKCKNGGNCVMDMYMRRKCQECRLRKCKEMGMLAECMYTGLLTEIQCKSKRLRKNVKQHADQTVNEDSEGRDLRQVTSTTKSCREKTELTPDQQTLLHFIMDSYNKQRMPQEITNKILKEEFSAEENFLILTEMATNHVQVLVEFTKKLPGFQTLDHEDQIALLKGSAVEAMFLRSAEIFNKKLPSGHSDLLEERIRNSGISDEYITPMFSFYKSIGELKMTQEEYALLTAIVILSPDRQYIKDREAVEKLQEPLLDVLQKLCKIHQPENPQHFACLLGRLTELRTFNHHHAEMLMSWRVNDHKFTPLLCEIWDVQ

[2] = biological target: T2, Bile acid receptor (Homo sapiens) (UniProt Q96RI1); test: Agonist activity at GST-tagged FXRalpha ligand binding domain assessed as biotinylated SRC1 binding at 20 uM after 30 mins by HTRF assay
T2 sequence (whole entry): T1 sequence (Q96RI1 whole entry)

[3] = biological target: T2, Bile acid receptor (Homo sapiens); test: Antagonist activity at GST-tagged FXRalpha ligand binding domain assessed as inhibition of CDCA-induced biotinylated SRC1 binding at 20 uM after 30 mins by HTRF assay
Bile acid receptor [4] = biological target: T1, Bile acid receptor; test: (§1) Antagonist activity at GST-tagged FXRalpha ligand binding domain assessed as inhibition of CDCA-induced biotinylated SRC1 binding after 30 mins by HTRF assay
[5] = biological target: T2, Bile acid receptor (Homo sapiens); test: as §1
Bile acid receptor [6] = biological target: T1, Bile acid receptor; test: (§2) Agonist activity at FXRalpha expressed in HEK293 cells assessed as increase in transcriptional activity after 18 hrs by luciferase reporter gene assay; type: functional, cell-based
[7] = biological target: T2, Bile acid receptor (Homo sapiens); test: as §2; type: functional, cell-based
Bile acid receptor [8] = biological target: T1, Bile acid receptor; test: (§3) Agonist activity at GST-tagged FXRalpha ligand binding domain assessed as biotinylated SRC1 binding after 30 mins by HTRF assay
[9] = biological target: T2, Bile acid receptor (Homo sapiens); test: as §3

SMILES | pEC50 (Bile acid receptor [1]) | Activity [2] [%] | inhibition [3] [%] | pIC50 (Bile acid receptor [4]) | inhibition [5] | pEC50 (Bile acid receptor [6]) | Activity [7] | pEC50 (Bile acid receptor [8]) | Activity [9]
Cc1cc(OCc2c(-c3c(Cl)cncc3Cl)noc2C(C)C)ccc1-c1ccc2c(c1)c(C(=O)O)cn2C | 7.03 |  |  |  |  |  |  |  | 
COC(=O)/C=C/c1cccc(N(Cc2ccc(/C=C/c3ccccc3)cc2)C(=O)C2CCCCC2)c1 | 7.44 |  |  |  |  |  |  |  | 
C[C@@H]1CCc2c(sc3nc(CN4CCOCC4)nc(N[C@H](c4ccccc4)c4ccccn4)c23)C1 |  | < 5 | 57.1 | 5.08 | Dose-dependent effect |  |  |  | 
NC(=O)c1ccc(NC(=O)[C@@H](Cc2ccccc2)NC(=O)c2ccc(Cl)cc2)cc1 |  | 52.5 | 7.28 |  |  | 5.59 | Dose-dependent effect | 4.89 | Dose-dependent effect
O=C(COC(=O)c1ccc(O)cc1)Nc1sc2c(c1C(=O)c1ccccc1)CCCC2 |  | < 5 | 63.3 | 5.42 | Dose-dependent effect |  |  |  | 
